Patent publication US20050074834A1 (priority 2001, published 2005)
“Also recorded” adds a separate entry of the source. No end group written: not given here.

Experiments:
erythrophores = format: cell-based
chromatophores [1] = system: chromatophores
[2] = system: Betta splendens erythrophores; format: cell-based
chromatophores [3] = assay: cells; details: read-out: Threshold concentration PPM
melanophores = format: cell-based
iridophores = format: cell-based
fish chromatophores = format: cell-based
Betta chromatophores = format: cell-based

## c1ccc2cc3c(ccc4ccccc43)cc2c1 [1,2-Benzanthracene]
erythrophores
  Chromatophore response Erythrophores: Imp.
Chromatophores [1]
  Threshold concentration PPM: X (key: X=1 to 100 PPM; XX=100 to 1000 PPM)

## CNc1ccc2oc(C[C@H]3O[C@@]4(CC[C@H]3C)O[C@H]([C@H](C)C(=O)c3ccc[nH]3)[C@H](C)C[C@H]4C)nc2c1C(=O)O [A23187]
[2]
  Morphology Effect: Aggregation: No
  Morphology Effect: Dispersion: No

## c1cc2c3c(cccc3c1)CC2 [Acenapthene]
erythrophores
  Chromatophore response Erythrophores: Imp.
Chromatophores [1]
  Threshold concentration PPM: X (key: X=1 to 100 PPM; XX=100 to 1000 PPM)

## CC(=O)OCC[N+](C)(C)C [Acetylcholine]
Chromatophores [3]
  minimal effective concentration: 1 to 100 µg/mL

## Nc1ncnc2c1ncn2[C@@H]1O[C@H](CO)[C@@H](O)[C@H]1O [Adenosine]
Chromatophores [1]
  Chromatophore response (cell spans the chromatophore type columns): Disp.
Chromatophores [3]
  minimal effective concentration: 100 to 1000 µg/mL

## [Ag] [Ag]
Chromatophores [1]
  Chromatophore response (cell spans the chromatophore type columns): Imp. (FS)
  Threshold concentration PPT: X (key: X=1 PPT or higher)

## N [Ammonium]
Chromatophores [1]
  Chromatophore response (cell spans the chromatophore type columns): Imp. (FS)
  Threshold concentration PPM: XX (key: X=1 to 100 PPM; XX=100 to 1000 PPM)

## CC(N)Cc1ccccc1 (centres unmarked) [Amphetamine]
Chromatophores [1]
  Chromatophore response (cell spans the chromatophore type columns): Aggr. (FS)
Chromatophores [3]
  minimal effective concentration: 1 to 100 µg/mL

## CC(=O)OCOC(=O)CN(CC(=O)OCOC(C)=O)c1ccccc1OCCOc1ccccc1N(CC(=O)OCOC(C)=O)CC(=O)OCOC(C)=O [BAPTA/AM]
[2]
  Morphology Effect: Aggregation: No
  Morphology Effect: Dispersion: Yes
  erythrophore pigment response on addition: pigment dispersion

## COC(=O)C1=C(C)NC(C)=C([N+](=O)[O-])C1c1ccccc1C(F)(F)F (centres unmarked) [Bay K8644]
[2]
  erythrophore pigment response on direct application: neither the aggregation nor dispersion of erythrophore pigment

## C=C(C=O)C[C@@H]1C[C@H](O)[C@]2(C)O[C@@H]3C[C@@H]4O[C@@H]5C[C@]6(C)O[C@]7(C)CC[C@@H]8O[C@@H]9C[C@]%10(C)O[C@@H]%11C(C)=CC(=O)O[C@H]%11C[C@H]%10O[C@H]9C[C@@H](C)[C@H]8O[C@H]7C[C@H]6O[C@H]5C/C=C\[C@H]4O[C@H]3C[C@H]2O1 [Brevetoxin]
Chromatophores [1]
  Chromatophore response (cell spans the chromatophore type columns): Aggr. (FS)
  Response time Hr.: X (key: X=1-6 hr; XX=6-24 hr)
  Threshold concentration PPM: X (key: X=1 to 100 PPM; XX=100 to 1000 PPM)

## CCCCCCC(C)(C)c1ccc([C@@H]2C[C@H](O)CC[C@H]2CCCO)c(O)c1 [Cannabinoid CP-55940, CP-55940]
Chromatophores [1]
  Chromatophore response (cell spans the chromatophore type columns): Disp. (FS)

## COc1cc(CNC(=O)CCCC/C=C/C(C)C)ccc1O [Capsaicin]
melanophores
  Chromatophore response Melanophores: Hollow-
Chromatophores [3]
  minimal effective concentration: 1 to 100 µg/mL

## COc1cc2c(c(OC)c1OC)-c1ccc(OC)c(=O)cc1[C@@H](NC(C)=O)CC2 [Colchicine]
Chromatophores [3]
  minimal effective concentration: 100 to 1000 µg/mL

## [Cu] [Cu]
Chromatophores [1]
  Chromatophore response (cell spans the chromatophore type columns): Imp. (FS)
  Threshold concentration PPT: X (key: X=1 PPT or higher)

## C=CC[C@@H](CC/C(C)=C/C=C/CC/C=C\[C@@H]1CSC([C@@H]2C[C@@H]2C)=N1)OC [Curacin A]
Chromatophores [1]
  Chromatophore response (cell spans the chromatophore type columns): Aggr. and Imp. (FS)
  Response time Hr.: X (key: X=1-6 hr; XX=6-24 hr)
  Threshold concentration PPM: X (key: X=1 to 100 PPM; XX=100 to 1000 PPM)

## C=C1[C@@H](C)[C@H]2[C@H](Cc3ccccc3)NC(=O)[C@]23[C@H](OC(C)=O)/C=C/[C@@](C)(O)C(=O)[C@@H](C)C/C=C/[C@H]3[C@@H]1O [Cytochalasin D]
melanophores
  Chromatophore response Melanophores: Imp.
Chromatophores [1]
  Threshold concentration PPM: XX (key: X=1 to 100 PPM; XX=100 to 1000 PPM)

## CNCCCN1c2ccccc2CCc2ccccc21 [Desipramine]
Chromatophores [1]
  Chromatophore response (cell spans the chromatophore type columns): Aggr. (FS)
Chromatophores [3]
  minimal effective concentration: 1 to 100 µg/mL

## COP(=O)(OC)OC=C(Cl)Cl [Dichlorvos]
erythrophores
  Chromatophore response Erythrophores: Imp. (FS)
iridophores
  Chromatophore response Iridophores: Hue change, then Imp.
Chromatophores [1]
  Response time Hr.: X (key: X=1-6 hr; XX=6-24 hr)

## NCCc1ccc(O)c(O)c1 [Dopamine]
Chromatophores [1]
  Chromatophore response (cell spans the chromatophore type columns): Aggr. (FS)
Chromatophores [3]
  minimal effective concentration: 100 to 1000 µg/mL

## CCOP(=S)(Oc1ccc([N+](=O)[O-])cc1)c1ccccc1 (centres unmarked) [EPN]
Chromatophores [1]
  Response time Hr.: X (key: X=1-6 hr; XX=6-24 hr)
  Threshold concentration PPM: XX (key: X=1 to 100 PPM; XX=100 to 1000 PPM)

## c1ccc2c(c1)-c1cccc3cccc-2c13 [Fluoranthene]
Chromatophores [3]
  minimal effective concentration: 1 to 100 µg/mL

## C=O [Formaldehyde]
Chromatophores [3]
  minimal effective concentration: 100 to 1000 µg/mL

## O=S(=O)(NCCNC/C=C/c1ccc(Br)cc1)c1cccc2cnccc12 [H89]
Fish chromatophores
  chromatophore response in the absence of forskolin: aggregate; also recorded: aggregation
  chromatophore response in the presence of forskolin: continues to be responsive; also recorded: still results in cell aggregation

## NCCc1c[nH]cn1 [Histamine]
Chromatophores [3]
  minimal effective concentration: 100 to 1000 µg/mL

## C[C@]12CCC(=O)C=C1CC[C@@H]1[C@@H]2[C@@H](O)C[C@@]2(C)[C@H]1CC[C@]2(O)C(=O)CO [Hydrocortisone]
melanophores
  Chromatophore response Melanophores: Hyp. D.
erythrophores
  Chromatophore response Erythrophores: HypD.
Chromatophores [1]
  Response time Hr.: XX (key: X=1-6 hr; XX=6-24 hr)

## OO [Hydrogen peroxide]
Chromatophores [1]
  Chromatophore response (cell spans the chromatophore type columns): Imp. (FS)
Chromatophores [3]
  minimal effective concentration: 100 to 1000 µg/mL

## C[C@H](CCC(=O)O)C[C@H](C)C[C@H](C)C(=O)/C=C(\O)[C@H](C)C[C@H](C)C/C=C/[C@@H](C)[C@@H](O)[C@@H](C)[C@@H](O)C[C@@H]1CC[C@@](C)([C@H]2CC[C@@](C)([C@@H](C)O)O2)O1 [Ionomycin]
[2]
  Morphology Effect: Aggregation: Yes
  Morphology Effect: Dispersion: No
  erythrophore pigment response on addition: slight, but sustained aggregation

## [Ni] [Ni]
Chromatophores [1]
  Chromatophore response (cell spans the chromatophore type columns): Imp. (FS)
  Threshold concentration PPT: X (key: X=1 PPT or higher)

## O=S(=O)(F)Cc1ccccc1 [PMSF, phenylmethylsulfonyl fluoride]
Fish chromatophores
  effect of PMSF on sensitivity to H89: heightens the sensitivity of cells to H89; also recorded: increased sensitivity to H89 inhibition
Chromatophores [1]
  Chromatophore response (cell spans the chromatophore type columns): Imp. (FS)
  Threshold concentration PPM: X (key: X=1 to 100 PPM; XX=100 to 1000 PPM)

## [Pb] [Pb]
Chromatophores [1]
  Chromatophore response (cell spans the chromatophore type columns): Imp. (FS)
  Threshold concentration PPT: X (key: X=1 PPT or higher)

## CN(C)CCC(c1ccccc1)c1ccccn1 (centres unmarked) [Pheniramine]
Chromatophores [3]
  minimal effective concentration: 100 to 1000 µg/mL

## CC(COc1ccccc1)N(CCCl)Cc1ccccc1 (centres unmarked) [Phenoxy-benzamine]
Chromatophores [1]
  Chromatophore response (cell spans the chromatophore type columns): Blocks norepinephrine

## Cc1ccc(N(CC2=NCCN2)c2cccc(O)c2)cc1 [Phentolamine]
Chromatophores [1]
  Chromatophore response (cell spans the chromatophore type columns): Blocks norepinephrine

## CNCCNS(=O)(=O)c1cccc2cnccc12 [Protein kinase inhibitor H-8]
melanophores
  Chromatophore response Melanophores: Disp.
Chromatophores [1]
  Threshold concentration PPM: XX (key: X=1 to 100 PPM; XX=100 to 1000 PPM)

## NCCNS(=O)(=O)c1cccc2cnccc12 [Protein kinase inhibitor H-9]
melanophores
  Chromatophore response Melanophores: Disp.
Chromatophores [1]
  Threshold concentration PPM: XX (key: X=1 to 100 PPM; XX=100 to 1000 PPM)

## COC(=O)[C@@]1(O)C[C@H]2O[C@]1(C)n1c3ccccc3c3c4c(c5c6ccccc6n2c5c31)C(=O)NC4 [Protein kinase inhibitor K252a]
Chromatophores [3]
  minimal effective concentration: 1 to 100 µg/mL

## c1cc2ccc3cccc4ccc(c1)c2c34 [Pyrene]
Chromatophores [3]
  minimal effective concentration: 1 to 100 µg/mL

## O=C(O)c1ccccc1O [Salicylate]
Chromatophores [1]
  Chromatophore response (cell spans the chromatophore type columns): Imp. (FS)
  Threshold concentration PPM: XX (key: X=1 to 100 PPM; XX=100 to 1000 PPM)

## NCCc1c[nH]c2ccc(O)cc12 [Serotonin]
Chromatophores [1]
  Chromatophore response (cell spans the chromatophore type columns): Partial Aggr.
Chromatophores [3]
  minimal effective concentration: 1 to 100 µg/mL

## C/C=C(/C)C(=O)O[C@H]1C(C)=C2[C@H]([C@@H]1OC(=O)CCCCCCC)[C@@](C)(OC(C)=O)C[C@H](OC(=O)CCC)[C@@]1(O)[C@H]2OC(=O)[C@@]1(C)O [Thapsigargin]
[2]
  Morphology Effect: Aggregation: Yes
  Morphology Effect: Dispersion: No

## CCOC(=O)c1cccc(N)c1 [Tricaine]
melanophores
  Chromatophore response Melanophores: Disp.
Chromatophores [1]
  Threshold concentration PPM: X (key: X=1 to 100 PPM; XX=100 to 1000 PPM)

## COP(=O)(OC)C(O)C(Cl)(Cl)Cl (centres unmarked) [Trichlorfon]
erythrophores
  Chromatophore response Erythrophores: Imp. (FS)
iridophores
  Chromatophore response Iridophores: Hue change (FS)
Chromatophores [1]
  Response time Hr.: X (key: X=1-6 hr; XX=6-24 hr)

## COc1ccc(CCN(C)CCCC(C#N)(c2ccc(OC)c(OC)c2)C(C)C)cc1OC (centres unmarked) [Verapamil]
[2]
  Morphology Effect: Aggregation: No
  Morphology Effect: Dispersion: Yes
  erythrophore pigment dispersion response, control: failed to induce pigment dispersion response
  erythrophore pigment response after norepinephrine pre-treatment: produces pigment dispersion
  erythrophore response to verapamil: rapid dispersion; also recorded: disperse almost as completely as possible; also recorded: pigment dispersion; also recorded: larger dispersion
Chromatophores [1]
  Threshold concentration PPB: X (key: X=1 to 100 PPB; XX=100 to 1000 PPB)

## COC(=O)[C@@H]1[C@H]2C[C@H]3c4[nH]c5ccccc5c4CCN3C[C@@H]2CC[C@@H]1O [Yohimbine]
Chromatophores [1]
  Chromatophore response (cell spans the chromatophore type columns): Blocks norepinephrine

## c1ccc(C2CC2)c(OCC2=NCCN2)c1 [cirazoline]
Fish chromatophores
  chromatophore response after forskolin and PMSF: no aggregation occurred
  chromatophore response in the absence of forskolin: aggregate; also recorded: aggregation
  chromatophore response in the presence of forskolin: unresponsive; also recorded: not detectable

## MCH
melanophores
  Chromatophore response Melanophores: Aggr.
Chromatophores [1]
  Threshold concentration PPB: X (key: X=1 to 100 PPB; XX=100 to 1000 PPB)

## Pertussis toxin: Bacterial toxin, Pertussis toxin
melanophores
  Chromatophore response Melanophores: Imp.
Betta chromatophores
  selective sensitivity of color classes of chromatophores: melanophores to pertussis toxin
Chromatophores [1]
  Response time Hr.: X (key: X=1-6 hr; XX=6-24 hr)
  Threshold concentration PPM: X (key: X=1 to 100 PPM; XX=100 to 1000 PPM)

## Substance P (RPKPQQFFGLM; ends and bridges not checked; UniProt P20366 58-68, looked up)
Chromatophores [1]
  Chromatophore response (cell spans the chromatophore type columns): Hue changes (FS)

## μ-Conotoxin GVIA
[2]
  Morphology Effect: Aggregation: No
  Morphology Effect: Dispersion: No
